Laboratory results published in article PMC11696576, “Next generation thiazolyl ketone inhibitors of cytosolic phospholipase A2 α for targeted cancer therapy” (Nature Communications, 2025).
Where “and” joins values, the source holds several entries; their conditions need not be identical. Equal values may be shown once. Read-outs that look alike come from different tables or passages of the source. Marks after values point to notes of the source that are not given here.

How the values were obtained:
[1] = stability in human plasma (LC-MS/MS); format: in vitro ADME; settings: for Stability in human plasma 4 h: % of the compound remaining after 4 h
Procedure: The stability of the analogs in human plasma was studied over approximately 24 h by LC-MS/MS and the results at 4 h and the final timepoint (20–25 h) are included in Table 1.
The metabolic stability of the compounds was determined through in vitro stability assays in human plasma. Solutions of compounds in DMSO (20 mM) were diluted to 5 μg/mL in 50% methanol for infusion into the MS/MS system and spiking of calibration standards and control samples. For the MS detection, positive ionization in ESI mode was used. Good sensitivity, retention and peak shaped were achieved using a gradient with 5 mM ammonium carbamate in water and ammonium carbamate in 90% acetonitrile on a reversed phase column (ACE3AQ). Calibration standards were spiked in a calibration range of 0.5–100 ng/ml. Control samples were spiked at, low, medium, and high concentration levels. The spiked plasma samples were prepared by protein precipitation using acetonitrile containing appropriate internal standard (IS). […] Samples were prepared for analysis by taking 50 μL of plasma sample and adding 100 μL of IS working solution in acetonitrile followed by vortexing at 2500 rpm (Multi-tube vortexer DVX-2500, Henry Troemner LLC, USA) for 2 min. The samples were centrifuged at 5300 rpm (Heraeus Megafuge 1.0 Heraeus, Germany) for 3 min and the supernatant transferred to the autosampler. Recovery was determined by comparing the prepared matrix samples (protein precipitation) with a direct sample (analytes spikes in 67% acetonitrile = injection solution) such that the recovery of the sample preparation and the matrix effects were determined together. Two or three samples were each measured in technical triplicates to give the final % recovery.

secreted GV sPLA2 = target: T1, secreted GV sPLA2 (Homo sapiens, UniProt P39877); experiment: radioactivity-based mixed micelle assay, GV sPLA2; format: biochemical
T1 sequence (P39877 21-138): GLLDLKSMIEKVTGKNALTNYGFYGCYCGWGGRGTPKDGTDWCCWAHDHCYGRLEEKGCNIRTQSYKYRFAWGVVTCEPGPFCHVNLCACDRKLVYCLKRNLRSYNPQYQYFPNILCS
Procedure: (§1) All synthesized thiazolyl ketones were tested for their in vitro inhibitory activity on recombinant human cPLA2α and selectivity over human calcium-independent GVIA iPLA2 and secreted GV sPLA2 using our previously described group-specific radioactivity-based mixed micelle assays. The inhibition results are presented either as per cent inhibition or as XI(50) values in Table 1. […] The XI(50) is defined as the mole fraction of the inhibitor in the total substrate interface required to inhibit the enzyme activity by 50%. For comparison purposes, previously published data for the inhibitor GK470[19] are included. […] Inhibitors were initially screened at 0.091 mol fraction (5 μL of 5 mM inhibitor in DMSO) in substrate (495 μL) in technical triplicates. […] The XI(50) value and stdev values reported are for the entire curve. This analysis was performed in GraphPad Prism v6.

recombinant human cPLA2α = target: T2, recombinant human cPLA2α (Homo sapiens, UniProt P47712); experiment: radioactivity-based mixed micelle assay, cPLA2α; format: biochemical; settings: for cPLA2α inhibition, Xi50 dose-response: replicates; for cPLA2 % inhibition at 0.091 mole fraction, average: average of triplicates
T2 sequence (P47712 1-749): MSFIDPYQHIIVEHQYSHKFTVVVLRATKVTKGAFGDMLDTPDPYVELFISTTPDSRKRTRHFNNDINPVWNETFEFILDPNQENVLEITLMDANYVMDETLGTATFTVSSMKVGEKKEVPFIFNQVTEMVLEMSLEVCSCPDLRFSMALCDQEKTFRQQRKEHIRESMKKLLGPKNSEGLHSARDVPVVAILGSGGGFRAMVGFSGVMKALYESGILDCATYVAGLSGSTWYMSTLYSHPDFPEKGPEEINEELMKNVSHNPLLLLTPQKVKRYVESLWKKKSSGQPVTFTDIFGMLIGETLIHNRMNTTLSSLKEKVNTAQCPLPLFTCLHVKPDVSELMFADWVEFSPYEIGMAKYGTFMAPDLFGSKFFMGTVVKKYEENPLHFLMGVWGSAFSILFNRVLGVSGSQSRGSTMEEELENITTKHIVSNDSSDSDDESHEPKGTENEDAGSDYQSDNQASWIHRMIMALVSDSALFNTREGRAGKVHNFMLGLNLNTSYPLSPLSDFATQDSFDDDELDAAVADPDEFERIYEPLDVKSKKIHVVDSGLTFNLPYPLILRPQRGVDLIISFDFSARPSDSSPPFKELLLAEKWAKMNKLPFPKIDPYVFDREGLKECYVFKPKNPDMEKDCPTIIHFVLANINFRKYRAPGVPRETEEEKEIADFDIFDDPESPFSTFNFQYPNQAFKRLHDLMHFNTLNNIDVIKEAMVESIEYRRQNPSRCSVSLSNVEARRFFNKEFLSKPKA
Procedure: as §1

SW982 synoviocytes = experiment: cellular arachidonic acid (AA) release assay, IL-1β stimulated; format: cell-based, human; settings: for inhibition at 1 µM / EC50 / IC50 / inhibition at 5 µM: Homo sapiens; for EC50 / IC50: SW982; for IC50: concentration in µM, read-out: logEC50 best-fit value, AA release (converted); for inhibition at 5 µM: SW982, 5 µM
Source text: To test the inhibitory activity of the compounds in cells, we measured their effect on the release of AA from synoviocytes stimulated with IL-1β (Table 2). […] Combined with favorable selectivity and stability it was thus chosen for further evaluation. We looked specifically at how it modulated eicosanoid levels in response to stimulation both in whole blood and in isolated peripheral blood mononuclear cells (PBMCs) and checked for off-target effects on AA metabolism in whole blood by also measuring the effect of GK420 on eicosanoid release in the presence of exogenous free AA.
The human synovial sarcoma cell line SW982 (ATCC, London, UK) was used to measure AA release. The cells were maintained in Dulbecco’s Modified Eagle Medium (DMEM) supplemented with 10% FBS, 0.1 mg/mL gentamicin, and 0.3 mg/mL L-glutamine at 37 °C with 10% CO2, and experiments were performed at 3 days post-confluence. To measure AA release, the cells were labeled overnight with ^3H-AA (0.4 μCi/mL) in serum-free DMEM and then washed twice with PBS containing fBSA (2 mg/mL) to remove unincorporated radioactivity. The inhibitors, or DMSO vehicle control, were subsequently added to the cells for 1 hour prior to stimulation with 10 ng/mL IL-1β for 4 h. Supernatants were collected and centrifuged at 300 × g for 5 min to clear them of detached cells and adherent cells were dissolved in 1 N NaOH. The ^3H-AA was assessed by liquid scintillation counting (LS 6500 Multi-Purpose Scintillation Counter, Beckman Coulter, Inc., USA) and the results are given as the inhibition of released ^3H-AA in the supernatants relative to total ^3H-AA incorporated into the cells, as described. EC50 values were calculated by fitting the % inhibition data to a three-parameter dose-response curve in GraphPad prism v10.4.0. Experiments were performed in technical triplicates and repeated at least three times.

[2] = individual sample, human plasma
[3] = 0.091 mole fraction, read-out: GV sPLA2 % Inhib
[4] = average of triplicates, read-out: sPLA2 % inhibition at 0.091 mole fraction, average
[5] = individual technical replicate, read-out: sPLA2 % inhibition at 0.091 mole fraction
[6] = 0.091 mole fraction, read-out: cPLA2α % Inhib
[7] = individual technical replicate, read-out: cPLA2 % inhibition at 0.091 mole fraction
[8] = 0.2 µM, individual biological replicate
[9] = 1 µM, individual biological replicate
[10] = 5 µM, individual biological replicate
[11] = SW982, 1 µM, individual biological replicate, read-out: % inhibition of stimulated AA release
[12] = SW982, 4 h, 1 µM inhibitor, IL-1β 4 h, mean ± stdev, read-out: AA release % Inhib
[13] = IL-1β 4 h, 0.2, 1 or 5 µM inhibitor, read-out: AA release EC50 µM (95% CI)
[14] = [Agonist] vs. Response (three parameters)
[15] = [Agonist] vs. Response (three parameters), read-out: EC50 best-fit value, AA release
[16] = individual biological replicate

SMILES	Stability in human plasma 4 h [1] [%]	plasma stability 4h (%) [1, 2]	inhibition at 0.091 mole fraction (secreted GV sPLA2; [3]) [%]	inhibition at 0.091 mole fraction (secreted GV sPLA2; [4]) [%]	inhibition at 0.091 mole fraction (secreted GV sPLA2; [5]) [%]	inhibition at 0.091 mole fraction (recombinant human cPLA2α; [6]) [%]	cPLA2 % inhibition at 0.091 mole fraction, average (recombinant human cPLA2α) [%]	inhibition at 0.091 mole fraction (recombinant human cPLA2α; [7]) [%]	% inhibition of stimulated AA release (SW982 synoviocytes; [8])	% inhibition of stimulated AA release (SW982 synoviocytes; [9])	% inhibition of stimulated AA release (SW982 synoviocytes; [10])	inhibition at 1 µM (SW982 synoviocytes; [11]) [%]	inhibition at 1 µM (SW982 synoviocytes; [12]) [%]	EC50 (SW982 synoviocytes; [13]) [µM]	IC50 (SW982 synoviocytes; [14]) [µM]	EC50 (SW982 synoviocytes; [15]) [µM]	plasma stability 25h (%) [1, 2]	inhibition at 5 µM (SW982 synoviocytes; [16]) [%]	also measured
COC(=O)c1csc(C(=O)COc2ccc(Oc3ccc(F)cc3)cc2)n1 [GK440]	21.3	20.1% and 22.4%	31	30.8	34.1	100	100.3	99.5	52.34% and 48.93% and 32.32% and 54.12%	77.97% and 89.75% and 95.95%	121.05% and 107.56% and 129.55% and 117.95%	90	88 ± 8	0.18	0.184	0.184	–	–	Stability in human plasma 20+ h ([1]; % of the compound remaining after 24 h 39 min (*)): 0.9* %; plasma stability 24h39min (%) [1, 2]: 0.5% and 1.3%; sPLA2 % inhibition at 0.091 mole fraction (secreted GV sPLA2; individual technical replicate): 29.2%; cPLA2α inhibition, Xi50 dose-response (recombinant human cPLA2α; Log [inhibitor] (mole%) -1.00): 102.2; cPLA2α inhibition, Xi50 dose-response (recombinant human cPLA2α; Log [inhibitor] (mole%) -1.22): 99.7; cPLA2α XI(50) (recombinant human cPLA2α; XI(50) ± stdev, mole fraction of inhibitor in total substrate interface for 50% inhibition): 0.0010 mole fraction and 0.0010 ± 0.0001 mole fraction
CCCCCCCCc1ccc(OCC(=O)c2nc(C(=O)OCC)cs2)cc1 [GK401]	69.3	65.9% and 74% and 67.2%	46	46.1	45.9	89	88.7	88.4	23.49% and 44.31% and 23.09% and 42.93%	46.19% and 56.11% and 60.73%	83.12% and 89.8% and 99.4%	49.8	53 ± 6	0.63	0.63	0.63	16.8% and 15.7%	92.1	Stability in human plasma 20+ h ([1]; % of the compound remaining after 25 h (¤)): 16.25¤ %
CCCCCCCCc1ccc(OCC(=O)c2nc(C(=O)OC)cs2)cc1 [GK470]	60.6	58.2% and 63% and 60.5%	–	–	–	–	–	–	11.2% and 24.55% and 57.46% and 50.18%	71.51% and 64.93% and 67.46%	105% and 107.21% and 94.17%	62.7	67 ± 4	0.38	0.385	0.385	10.5% and 10.6%	110	–
